Experiments:
Settings in all cases: incubation time: 72 h
[1] = test system: CAL-148; assay: normalised viability (% of control), CellTiter-Blue; higher = more viable cells (about 100 = DMSO control)
Procedure: (§1)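 DSRT, CellTiter-Blue viability, 72 h incubation. Signal is normalised to DMSO and benzethonium chloride controls. Value is the normalised response at dose 7.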

[2] = test system: CAL-51; assay: as above
Procedure: as §1

[3] = test system: CAL-85-1; assay: as above
Procedure: as §1

[4] = test system: DU-4475; assay: as above
Procedure: as §1

[5] = test system: HDQ-P1; assay: as above
Procedure: as §1

[6] = test system: MDA-MB-453; assay: as above
Procedure: as §1

[7] = test system: BT-474; assay: normalised response (% of control), CellTiter-Glo; higher = more viable cells (100 = DMSO, 0 = benzethonium chloride kill control)
How it was run: (§2)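 Plates were normalised with 0.1 % DMSO as 100 and a positive kill control as 0. Breast cancer cell lines in 20 µl suspension had been seeded into 384-well plates with compound at 5 concentrations in 10-fold steps over a compound-specific 10,000-fold range, incubated 72 h, and read for CellTox Green fluorescence (485/520 nm) followed by CellTiter-Glo luminescence. Each value is the normalised signal at a single concentration.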

[8] = test system: CAL-120; assay: as above
How it was run: as §2

[9] = test system: CAL-148; assay: as above
How it was run: as §2

[10] = test system: CAL-51; assay: as above
How it was run: as §2

[11] = test system: HCC1599; assay: as above
How it was run: as §2

[12] = test system: HCC1937; assay: as above
How it was run: as §2

[13] = test system: HDQ-P1; assay: as above
How it was run: as §2

[14] = test system: Hs578T; assay: as above
How it was run: as §2

[15] = test system: MCF-10A; assay: as above
How it was run: as §2

[16] = test system: MDA-MB-231; assay: as above
How it was run: as §2

[17] = test system: MDA-MB-436; assay: as above
How it was run: as §2

[18] = test system: CAL-148; assay: normalised viability (% of control), CellTiter-Blue; higher = more viable cells (about 100 = DMSO control); remark: listed apart in the source
Procedure: (§3)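 DSRT, CellTiter-Blue viability, 72 h incubation. Signal is normalised to DMSO and benzethonium chloride controls. Value is the normalised response at dose 9.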

[19] = test system: CAL-51; assay: as above; remark: listed apart in the source
Procedure: as §3

[20] = test system: CAL-85-1; assay: as above; remark: listed apart in the source
Procedure: as §3

[21] = test system: DU-4475; assay: as above; remark: listed apart in the source
Procedure: as §3

[22] = test system: HDQ-P1; assay: as above; remark: listed apart in the source
Procedure: as §3

[23] = test system: MDA-MB-453; assay: as above; remark: listed apart in the source
Procedure: as §3

For `Cn1cc(C2=Nc3cc(NC(=O)C(N)C4CCCCC4)cc4c3C2=CNNC4=O)cn1` (stereo not given) (1000 nM), the normalised viability [1] was 62.4%, the normalised viability [2] was 87.8% and the normalised viability [3] was 64%. For the same compound, the normalised viability [4] was 72.1%, the normalised viability [5] was 67.1% and the normalised viability [6] was 36.9%. For the same compound, the normalised response [7] was 68.5%, the normalised response [8] was 69.7% and the normalised response [9] was 83.8%. It also gave a normalised response [10] of 81.6%, a normalised response [11] of 11.9% and a normalised response [12] of 87%. For the same compound, the normalised response [13] was 85.2%, the normalised response [14] was 41.3% and the normalised response [15] was 74.5%. For the same compound, the normalised response [16] was 63.7% and the normalised response [17] was 53.3%.
With `Cn1cc(C2=Nc3cc(NC(=O)C(N)C4CCCCC4)cc4c3C2=CNNC4=O)cn1` (stereo not given) (10000 nM) the normalised viability [18] was 28.1%, the normalised viability [19] was 30% and the normalised viability [20] was 48.9%. For the same compound, the normalised viability [21] was 41.9%, the normalised viability [22] was 35.2% and the normalised viability [23] was 16.3%.
With `COc1cc2c(cc1O)CC[C@@H]1[C@@H]2CC[C@]2(C)[C@@H](O)CC[C@@H]12` [2-methoxyestradiol] (1000 nM) the normalised viability [1] was 89.7%, the normalised viability [2] was 107% and the normalised viability [3] was 86.8%. It also gave a normalised viability [4] of 89.5%, a normalised viability [5] of 83% and a normalised viability [6] of 53.3%. For the same compound, the normalised response [7] was 68.9%, the normalised response [8] was 81.8% and the normalised response [9] was 96.4%. For the same compound, the normalised response [10] was 92.9%, the normalised response [11] was 96.6% and the normalised response [12] was 89.6%. For the same compound, the normalised response [13] was 99.9%, the normalised response [14] was 77.3% and the normalised response [15] was 96%. It also gave a normalised response [16] of 73.9% and a normalised response [17] of 74.2%.
`COc1cc2c(cc1O)CC[C@@H]1[C@@H]2CC[C@]2(C)[C@@H](O)CC[C@@H]12` [2-methoxyestradiol] (10000 nM) gave a normalised viability [18] of 58.1%, a normalised viability [19] of 20.6% and a normalised viability [20] of 57.5%. For the same compound, the normalised viability [21] was 28.7%, the normalised viability [22] was 47.3% and the normalised viability [23] was 36.6%.
With `Cc1sc2c(c1C)C(c1ccc(Cl)cc1)=N[C@@H](CC(=O)OC(C)(C)C)c1nnc(C)n1-2` [(+)JQ1] (1000 nM) the normalised viability [1] was 56.5%, the normalised viability [2] was 84.1% and the normalised viability [3] was 56.7%. The normalised viability [4] was 12.4%, the normalised viability [5] was 106% and the normalised viability [6] was 21.9%. It also gave a normalised response [7] of 69.9%, a normalised response [8] of 73.4% and a normalised response [9] of 71.5%. For the same compound, the normalised response [10] was 103%, the normalised response [11] was 80% and the normalised response [12] was 80.8%. The normalised response [13] was 68.5%, the normalised response [14] was 48.8% and the normalised response [15] was 57.1%. The normalised response [16] was 77.2% and the normalised response [17] was 83.2%.
Work on `Cc1sc2c(c1C)C(c1ccc(Cl)cc1)=N[C@@H](CC(=O)OC(C)(C)C)c1nnc(C)n1-2` [(+)JQ1] (10000 nM) yielded a normalised viability [18] of 27.6%, a normalised viability [19] of 68.3% and a normalised viability [20] of 44.4%. It also gave a normalised viability [21] of 1.08%, a normalised viability [22] of 108% and a normalised viability [23] of 18.3%.
For `Oc1ncnc2[nH]ncc12` [Allopurinol] (1000 nM), the normalised viability [1] was 124%, the normalised viability [2] was 91.5% and the normalised viability [3] was 96.3%. It also gave a normalised viability [4] of 109%, a normalised viability [5] of 88% and a normalised viability [6] of 100%. The normalised response [7] was 101%, the normalised response [8] was 98.8% and the normalised response [9] was 99.2%. For the same compound, the normalised response [10] was 123%, the normalised response [11] was 119% and the normalised response [12] was 94.3%. The normalised response [13] was 98.1%, the normalised response [14] was 109% and the normalised response [15] was 106%. The normalised response [16] was 103% and the normalised response [17] was 100%.
Work on `Oc1ncnc2[nH]ncc12` [Allopurinol] (10000 nM) yielded a normalised viability [18] of 118%, a normalised viability [19] of 92.5% and a normalised viability [20] of 109%. It also gave a normalised viability [21] of 115%, a normalised viability [22] of 99.2% and a normalised viability [23] of 108%.
Compound `O=C1CN2Cc3c(ccc(Cl)c3Cl)N=C2N1` [Anagrelide] (1000 nM) has a normalised viability [1] of 104%, a normalised viability [2] of 73.6% and a normalised viability [3] of 86.1%. The normalised viability [4] was 113%, the normalised viability [5] was 105% and the normalised viability [6] was 103%. The normalised response [7] was 90.7%, the normalised response [8] was 93.6% and the normalised response [9] was 95%. The normalised response [10] was 88.4%, the normalised response [11] was 118% and the normalised response [12] was 96.8%. The normalised response [13] was 95.1%, the normalised response [14] was 88.7% and the normalised response [15] was 101%. It also gave a normalised response [16] of 94.2% and a normalised response [17] of 95.8%.
`O=C1CN2Cc3c(ccc(Cl)c3Cl)N=C2N1` [Anagrelide] (10000 nM) showed a normalised viability [18] of 115%, a normalised viability [19] of 83.8% and a normalised viability [20] of 89.8%. It also gave a normalised viability [21] of 108%, a normalised viability [22] of 118% and a normalised viability [23] of 90.9%.
Work on `Nc1ncn([C@@H]2O[C@H](CO)[C@@H](O)[C@H]2O)c(=O)n1` [Azacitidine] (1000 nM) yielded a normalised viability [1] of 97.3%, a normalised viability [2] of 96.7% and a normalised viability [3] of 91.4%. It also gave a normalised viability [4] of 116%, a normalised viability [5] of 106% and a normalised viability [6] of 98.9%. For the same compound, the normalised response [7] was 96.7%, the normalised response [8] was 91.1% and the normalised response [9] was 96.2%. It also gave a normalised response [10] of 119%, a normalised response [11] of 84.9% and a normalised response [12] of 90.9%. For the same compound, the normalised response [13] was 96.4%, the normalised response [14] was 102% and the normalised response [15] was 110%. The normalised response [16] was 97.4% and the normalised response [17] was 79.1%.
For `Nc1ncn([C@@H]2O[C@H](CO)[C@@H](O)[C@H]2O)c(=O)n1` [Azacitidine] (10000 nM), the normalised viability [18] was 82.8%, the normalised viability [19] was 102% and the normalised viability [20] was 102%. The normalised viability [21] was 77.7%, the normalised viability [22] was 68.4% and the normalised viability [23] was 82%.
With `O=NN(CCCl)C(=O)NCCCl` [Carmustine] (1000 nM) the normalised viability [1] was 105%, the normalised viability [2] was 96.9% and the normalised viability [3] was 88.4%. For the same compound, the normalised viability [4] was 102%, the normalised viability [5] was 105% and the normalised viability [6] was 105%. The normalised response [7] was 95.5%, the normalised response [8] was 96.6% and the normalised response [9] was 91.3%. The normalised response [10] was 121%, the normalised response [11] was 101% and the normalised response [12] was 99.8%. For the same compound, the normalised response [13] was 101%, the normalised response [14] was 102% and the normalised response [15] was 98.3%. The normalised response [16] was 97.8% and the normalised response [17] was 101%.

From the supplement of paper PMC4862054
